Measurements as given in paper PMC6272137, “Synthesis and Evaluation of Paeonol Derivatives as Potential Multifunctional Agents for the Treatment of Alzheimer’s Disease” (Molecules, 2015).
Like-named read-outs stand apart in the source and are kept apart here.

Assays:
AChE from electric eel = molecular target: T1, AChE from electric eel (Electrophorus electricus, UniProt O42275); assay: biochemical; conditions: n = 3, pH 8.0, 37 °C, read-out: AChE Inhibition (IC50)
T1 construct: purchased Sigma Aldrich
T1 sequence (O42275 24-633): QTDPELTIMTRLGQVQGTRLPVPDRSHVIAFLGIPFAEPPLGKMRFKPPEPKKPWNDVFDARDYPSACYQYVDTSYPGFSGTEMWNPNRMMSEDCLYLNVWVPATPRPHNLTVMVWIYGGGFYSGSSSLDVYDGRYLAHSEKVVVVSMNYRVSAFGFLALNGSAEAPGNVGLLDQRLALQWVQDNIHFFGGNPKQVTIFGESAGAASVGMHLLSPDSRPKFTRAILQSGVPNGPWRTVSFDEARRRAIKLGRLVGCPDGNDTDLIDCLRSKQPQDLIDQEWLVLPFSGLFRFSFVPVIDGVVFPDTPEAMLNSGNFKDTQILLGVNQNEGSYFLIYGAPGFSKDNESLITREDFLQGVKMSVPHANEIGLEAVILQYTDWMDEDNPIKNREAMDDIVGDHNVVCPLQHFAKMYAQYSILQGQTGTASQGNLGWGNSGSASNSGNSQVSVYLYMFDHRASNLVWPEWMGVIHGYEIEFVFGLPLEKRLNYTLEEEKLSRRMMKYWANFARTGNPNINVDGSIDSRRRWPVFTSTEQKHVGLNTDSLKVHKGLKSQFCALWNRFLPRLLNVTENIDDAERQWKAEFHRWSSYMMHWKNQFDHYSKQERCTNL
Procedure: Acetylcholinesterase (AChE, E.C.3.1.1.7, from the electric eel), 5,5'-dithiobis-(2-nitrobenzoic acid) (DTNB), acetylthiocholine iodide (ATCI) and donepezil hydrochloride were purchased from Sigma Aldrich. […] Paeonol and 5a–5d were dissolved in DMSO and then diluted by phosphate buffer (pH 8.0) to seven different concentrations in the range of 10^−3–10^−9 M. AChE solutions were prepared in double-distilled water to 2.0 units/mL in 2 mL aliquots. The assay medium contained phosphate buffer, pH 8.0 (1 mL), 50 µL of 0.01 M DTNB, 10 µL of enzyme and 50 µL of acetylthiocholine iodide. Test compounds were added to assay solution and preincubated at 37 °C with enzyme for 15 min, followed by the addition of substrate. Activity was determined by measuring the increase in absorbance at 412 nm at 1 min intervals at 37 ± 0.2 °C. For determining the blank value, 50 µL buffer replaced the AChE solution.

[1] = DPPH free radical scavenging assay; conditions: read-out: DPPH Scavenging (IC50), concentration causing 50% loss of initial DPPH free radical, mean ± SD, n = 3, 60 min, methanol
Procedure: Based on their interaction with DPPH (2,2-diphenyl-1-picrylhydrazyl) free radical, antioxidant activities of the new paeonol derivatives were screened. […] Paeonol is used as the positive control.
The stable radical DPPH was used as a reagent in this spectrophotometric assay. […] After a 60 min incubation period at room temperature in the dark, the absorbance was read at 517 nm against the corresponding blank. Inhibition of free radical DPPH in percent (I%) was calculated using the following Equation (1): (1) I%=(Ablank−Asample/Ablank)×100 Where Ablank is the absorbance of DPPH solution (control solution) against the blank, and Asample is the absorbance of the tested compound against the blank. Concentrations caused 50% loss of the initial DPPH free radical scavenging.

PC12 cells = assay: Protection of PC12 cells against H2O2-induced cell death (MTT assay); conditions: then 150 μM H2O2 for 5 h; for cell morphology (phase-contrast microscopy): 40 µM compound, 3 h preincubation

Row | SMILES | IC50 (AChE from electric eel) | IC50 [1] | cell morphology (phase-contrast microscopy) (PC12 cells) | IC50 ([1]; listed as paeonol) | protective effect on PC12 cells (MTT) (PC12 cells; 5 μM compound, 3 h pretreatment) | protective effect (cell viability, MTT) (PC12 cells; 40 μM compound, 3 h pretreatment, control cells = 100%)
1 | COc1ccc(C(=O)CN2CCN(Cc3ccccc3)CC2)c(O)c1 [5a, 2-(4-Benzylpiperazin-1-yl)-1-(2-hydroxy-4-methoxyphenyl) ethanone] | 1.59 ± 0.011 µM | 143 ± 8.83 µM |  |  |  | 
2 | COc1ccc(C(=O)CN2CCN(Cc3ccc(C)cc3)CC2)c(O)c1 [5b, 1-(2-Hydroxy-4-methoxyphenyl)-2-(4-(4-methylbenzyl)piperazin-1-yl) ethanone] | 0.61 ± 0.009 µM | 158 ± 6.88 µM | maintained normal cell morphology |  |  | 
3 | COc1ccc(C(=O)CN2CCN(Cc3ccc(Cl)cc3)CC2)c(O)c1 [5d, 2-(4-(4-Chlorobenzyl)piperazin-1-yl)-1-(2-hydroxy-4-methoxypheny) ethanone] | 2.63 ± 0.153 µM | 187 ± 13.7 µM |  |  |  | 
4 | COc1ccc(C(C)=O)c(O)c1 [Paeonol, 2-hydroxy-4-methoxy-acetophenone] |  | 310 ± 5.41 µM | maintained normal cell morphology | 310 µM | did not cause any apparent effects | 58.9%
5 | COc1ccc(C(=O)CN2CCN(Cc3ccc([N+](=O)[O-])cc3)CC2)c(O)c1 [5c, 1-(2-Hydroxy-4-methoxyphenyl)-2-(4-(4-nitrobenzyl)piperazin-1-yl) ethanone] | 7.04 ± 0.032 µM | 192 ± 8.06 µM |  |  |  | 
